Experimental data from PubChem BioAssay (NCI).
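These data come from cells grown in 96-well plates and exposed to compound for 48 hours at five concentrations. GI50: concentration for 50% inhibition of growth. TGI is the concentration that stops growth completely.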

How the values were obtained:
Test in all cases: DTP human tumour cell line panel, 48 h
[1] = tested on: COLO 205 colon
[2] = tested on: EKVX NSCLC
[3] = tested on: HCC-2998 colon
[4] = tested on: IGROV1 ovarian
[5] = tested on: K-562 leukemia
[6] = tested on: NCI-H522 lung
[7] = tested on: RPMI-8226 leukemia
[8] = tested on: SK-MEL-2 melanoma
[9] = tested on: SK-MEL-28 melanoma
[10] = tested on: UO-31 renal

Row | Compound | GI50 [1] [µM] | TGI [1] [µM] | GI50 [2] [µM] | TGI [2] [µM] | GI50 [3] [µM] | TGI [3] [µM] | GI50 [4] [µM] | TGI [4] [µM] | GI50 [5] [µM] | TGI [5] [µM] | GI50 [6] [µM] | TGI [6] [µM] | GI50 [7] [µM] | TGI [7] [µM] | GI50 [8] [µM] | TGI [8] [µM] | GI50 [9] [µM] | TGI [9] [µM] | GI50 [10] [µM] | TGI [10] [µM]
1 | Oc1ccc(Cc2ccccc2)c2cccnc12 | 7.74 | > 100 | 2.32 | > 100 | 3.65 | 16.6 | 2.2 | 32.8 | 0.836 | > 100 | 3.69 | 76 | 1.46 | > 100 | 12.7 | 70.6 | 10.3 | > 100 | 0.628 | 9.34
2 | COc1ccc(/C=C/C(=O)c2sc(-n3nc(-c4ccccc4)cc3-c3ccccc3)nc2C)cc1OC | – | > 100 | – | > 100 | – | > 100 | – | > 100 | – | 83.3 | – | 53.9 | – | 70 | – | > 100 | – | > 100 | – | > 100
3 | CCn1c(-c2nonc2N)nc2ccc(F)cc21 | > 25 | > 25 | > 22.2 | > 25 | > 25 | > 25 | > 25 | > 25 | > 25 | > 25 | > 25 | > 25 | > 25 | > 25 | > 25 | > 25 | > 25 | > 25 | > 25 | > 25
4 | CCCSc1cc(Cl)nc(N)n1 | > 100 | > 100 | > 100 | > 100 | > 100 | > 100 | > 100 | > 100 | > 100 | > 100 | > 100 | > 100 | > 100 | > 100 | > 100 | > 100 | > 100 | > 100 | 71.5 | > 100
5 | CN1CCN(Cc2ccc(NC(=O)c3ccc(C(C)(C)C)c(C#Cc4cnc5cccnn45)c3)cc2C(F)(F)F)CC1 | 1.8 | 3.43 | 5.8 | 19.3 | 1.83 | 3.38 | 2.55 | 6.99 | 0.932 | 2.6 | 2.2 | 3.95 | 2.54 | 6.11 | 8.8 | 22.5 | 1.93 | 3.73 | 1.93 | 3.9
6 | CNC(=O)c1cn(C[C@H](F)CCc2ccc(NC(=O)Cc3cc(OC4CC(F)(F)C4)cc(C)n3)nn2)nn1 | > 100 | > 100 | > 100 | > 100 | > 100 | > 100 | > 100 | > 100 | > 100 | > 100 | 5.18 | > 100 | 5.65 | > 100 | > 100 | > 100 | > 100 | > 100 | > 100 | > 100
7 | Cc1c(-c2nc(N)nc(C3CC3)c2C)nc(N)nc1C1CC1 | – | > 100 | – | > 100 | – | > 100 | – | > 100 | – | > 100 | – | > 100 | – | > 100 | – | > 100 | – | > 100 | – | > 100
8 | COC(=O)c1c(O)ccc2[nH]c(C)c(C#N)c12 | 88.5 | > 100 | 96.2 | > 100 | 95.1 | > 100 | 67.2 | > 100 | 55.3 | > 100 | 83.4 | > 100 | 27.3 | > 100 | > 100 | > 100 | 65.9 | > 100 | 33.9 | > 100
9 | FC(F)(F)c1ccc2c(Nc3cccc(C4CC(c5ccccc5)=NN4c4ccc(Cl)cc4)c3)ccnc2c1 (stereo not given) | 10.7 | > 100 | 10.9 | 59.5 | 1.96 | 4.01 | 2.57 | 11 | 3.31 | 14.3 | 6.16 | 38.6 | 2.3 | 6.46 | 15.1 | 42.9 | 4.54 | 18.3 | 1.82 | 9.68
10 | Clc1ccc(OCc2nnc3n2N=C(c2ccc(Cl)cc2Cl)CS3)c(Cl)c1 | 34.7 | > 100 | 26.2 | 74.1 | 20.3 | 37.2 | 20 | 52.9 | 33.4 | > 100 | 14.5 | 37.6 | 23.4 | 63.7 | 25.1 | 57 | 22.6 | 57 | 18.2 | 47.5
11 | COc1cc(/C=C\c2ccc(O)cc2)cc(OC)c1OC | – | 13.9 | – | > 100 | – | > 79 | – | > 100 | – | > 100 | – | > 22.4 | – | 35.3 | – | > 100 | – | 9.61 | – | > 36.6
12 | COc1ccccc1C(=O)c1ccc2ccccc2c1 | – | 61.5 | – | 77.8 | – | > 100 | – | 53 | – | > 100 | – | 21.5 | – | 97.5 | – | 37.5 | – | > 100 | – | 64.7
13 | NCCN1CCN(c2nccc(-c3ccc4ccccc4c3)n2)CC1 | 1.76 | 3.41 | 1.83 | 4.08 | 1.74 | 3.46 | 1.97 | 4.12 | 2.09 | 4.09 | 1.97 | 3.84 | 2.08 | 5.72 | 2.21 | 4.36 | 1.85 | 3.42 | 1.5 | 2.96
14 | COc1cc(-c2cn(C)c(=O)c(C)c2C)cc(OC)c1CN1CC[C@H](N2CCN(c3ccc(N[C@H]4CCC(=O)NC4=O)cc3F)CC2)C(F)(F)C1 | 14.4 | 37.4 | 12.7 | 34.9 | 12.9 | 25.8 | 13.8 | 34.3 | 9.44 | > 100 | 8.09 | 24.1 | 6.43 | > 100 | 14.6 | 29.4 | 15.6 | 30.9 | 4.56 | 17.6
